Values of other authors as cited in patent US8592402B2, “Compounds as lysophosphatidic acid receptor antagonists” (Amira Pharmaceuticals, Inc., priority 2009, dated 2013).

Columns and labels:
[1] = tested on: human foetal lung fibroblasts
[2] = tested on: UUO mice; conditions: compared with LPA1 (−/−) mice
[3] = tested on: mouse epithelial renal cell line, MCT; conditions: LPA treatment of MCT cells, co-treatment
[4] = tested on: pancreatic cancer cell lines; conditions: in response to LPA and peritoneal fluid (ascites) from pancreatic cancer patients
[5] = tested on: highly peritoneal metastatic pancreatic cancer cell line; conditions: LPA-induced and ascites-induced
[6] = tested on: nerve-injured mice; conditions: pretreatment

SMILES	fibroblast chemotactic activity ([1]; bronchoalveolar lavage samples of human subjects with IPF)	chemotaxis of human foetal lung fibroblasts ([1]; induced by BAL obtained from IPF patients)	development of renal fibrosis [2]	induction of CTGF expression [3]	in vitro migration [4]	invasion activity [5]	allodynia and hyperalgesia [6]
Cc1noc(-c2ccc(CSCCC(=O)O)cc2)c1NC(=O)OC(C)c1ccccc1Cl (stereo not shown) [Ki16425]	inhibited	blocked	closely resembled the LPA1 (−/−) mice	almost completely suppressed	effectively blocked	blocked	
C[C@@H](N)[C@H]1CC[C@H](C(=O)Nc2ccncc2)CC1 [Compound Y-27632]							completely abolished
